Assay results from patent EP1196433B1, “CYCLIC PEPTIDE DERIVATIVES AS INHIBITORS OF INTEGRIN ALPHA v BETA 6” (Merck Patent GmbH, priority 1999, dated 2001).
Non-standard residues stand in square brackets, D forms with d. Residues, ends and D or L forms follow the SMILES beside them.

Biological target: T1, αvβ6 Rezeptor (Homo sapiens, UniProt P06756+P18564)
T1 construct: Die Immobilisierung von löslichem αvβ6 Rezeptor auf Microtiterplatten
Assay: αvβ6 / fibronectin receptor binding test (competition of peptide with biotinylated fibronectin on immobilised integrin, ELISA read-out)
Details: for -log Q / Q (IC50[Substanz] / IC50[EMD 271293]): peptides Cyclo-(Arg-Gly-Asp-Leu-D-Asp-Ala-Leu-Arg-R^1), labelled by R^1; for -log Q: Q = IC50[Substanz] / IC50[EMD 271293]; for Q (IC50[Substanz] / IC50[EMD 271293]): ratio to comparison compound EMD 271293; for Q-Wert = IC50 Testpeptid / IC50 EMD 271293: standard Ac-RTDLDSLR-NH2, Q values of repeated experiments averaged
From the text: αvβ6 / Fibronektin Rezeptorbindungstest:
Die hergestellten erfindungsgemäßen Peptide wurden in Lösung zusammen mit kompetetiv wirkenden Fibronektin an den immobiliserten αvβ6 Rezeptor gebunden und der Q-Wert als Maß für die Selektivität der Bindung des zu testenden Peptids an αvβ6 ermittelt. Der Q-Wert berechnet sich dabei aus dem Quotienten der IC50-Werte von Testpeptid und einem Standard. Als Standard diente das lineare Ac-RTDLDSLR-NH2 (Code EMD 271293) (Lit./Patent vgl Pytela et al. Science 231, 1559, (1986)). Der Bindungstest wurde im einzelnen wie folgt durchgeführt: • Die Immobilisierung von löslichem αvβ6 Rezeptor auf Microtiterplatten erfolgte durch Verdünnung der Proteinlösung in TBS++ und anschliessender Inkubation über Nacht bei 4°C (100 µl/Vertiefung). Unspezifische • Bindungsstellen wurden durch Inkubation (2 h, 37°C) mit 3% (w/v) BSA in TBS++ (200 µl/Vertiefung) blockiert. Überschüssiges BSA wurde durch dreimaliges Waschen mit TBSA++ entfernt. Peptide wurden seriell (1:10) in TBSA++ verdünnt und zusammen mit biotinyliertem Fibronektin (2 µg/ ml) mit dem immobilisierten Integrin inkubiert (50 µl Peptid + 50 µl Ligand pro Vertiefung; 2 h; 37°C). Nicht gebundenes Fibronektin und Peptide wurden durch dreimaliges Waschen mit TBSA++ entfernt. Die Detektion des gebundenen Fibronektin erfolgte durch Inkubation (1 h; 37 °C) mit einem alkalische-Phosphatase-gekoppelten anti-Biotin-Antikörper (Biorad) (1:20000 in TBSA++; 100 µl/Vertiefung). Nach dreimaligem Waschen mit TBSA++ erfolgte die kolorimetrische Detektion durch Inkubation (10-15 min; 25°C, im Dunkeln) mit Substratlösung (5 mg Nitrophenylphosphat, 1 ml Ethanolamin, 4 ml H2O; 100 µl/Vertiefung). Die Enzymreaktion wurde durch Zugabe von 0,4 M NaOH (100 µl/Vertiefung) gestoppt. Die Farbintensität wurde bei 405 nm im ELISA-Meßgerät bestimmt und gegen den Nullwert abgeglichen. Als Nullwert dienten Vertiefungen, die nicht mit Rezeptor beschichtet waren. Als Standard wurde Ac-RTDLDSLR-NH2 eingesetzt. Die IC50-Werte für die getesteten Peptide wurden aus einer Graphik abgelesen und daraus zusammen mit dem IC50-Wert des Standardpeptids der Q-Wert des erfindungsgemäßen Peptids ermittelt. Q-Wert = IC50 Testpeptid/IC50 Standard [formula] Q-Werte aus Versuchswiederholungen wurden gemittelt.

[1] = biotinylated fibronectin 2 µg/ml

T1 sequence (P06756 31-992 limits assumed): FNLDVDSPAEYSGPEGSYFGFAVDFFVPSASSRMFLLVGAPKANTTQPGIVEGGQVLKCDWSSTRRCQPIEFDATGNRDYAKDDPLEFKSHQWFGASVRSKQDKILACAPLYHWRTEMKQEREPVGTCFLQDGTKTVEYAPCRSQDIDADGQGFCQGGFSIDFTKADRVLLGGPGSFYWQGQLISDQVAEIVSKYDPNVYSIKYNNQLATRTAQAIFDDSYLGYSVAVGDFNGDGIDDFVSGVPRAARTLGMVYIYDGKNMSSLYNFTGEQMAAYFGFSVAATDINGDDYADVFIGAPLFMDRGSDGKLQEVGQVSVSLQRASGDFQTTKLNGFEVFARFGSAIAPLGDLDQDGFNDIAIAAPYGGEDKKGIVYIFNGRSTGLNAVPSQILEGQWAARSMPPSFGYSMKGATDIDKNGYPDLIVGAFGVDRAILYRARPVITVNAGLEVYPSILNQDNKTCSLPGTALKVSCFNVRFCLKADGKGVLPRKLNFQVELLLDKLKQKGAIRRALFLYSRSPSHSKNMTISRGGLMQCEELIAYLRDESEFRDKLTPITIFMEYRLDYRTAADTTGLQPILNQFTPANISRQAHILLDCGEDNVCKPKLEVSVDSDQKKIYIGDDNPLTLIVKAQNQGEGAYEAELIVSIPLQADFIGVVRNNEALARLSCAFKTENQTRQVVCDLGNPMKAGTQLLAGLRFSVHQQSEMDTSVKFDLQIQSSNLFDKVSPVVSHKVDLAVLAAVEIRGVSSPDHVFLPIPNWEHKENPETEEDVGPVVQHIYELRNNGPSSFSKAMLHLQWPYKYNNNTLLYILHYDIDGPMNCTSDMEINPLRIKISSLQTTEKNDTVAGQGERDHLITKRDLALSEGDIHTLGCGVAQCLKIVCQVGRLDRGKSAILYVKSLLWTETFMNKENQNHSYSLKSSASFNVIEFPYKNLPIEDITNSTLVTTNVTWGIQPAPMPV
T1 sequence (P18564 22-709 limits assumed): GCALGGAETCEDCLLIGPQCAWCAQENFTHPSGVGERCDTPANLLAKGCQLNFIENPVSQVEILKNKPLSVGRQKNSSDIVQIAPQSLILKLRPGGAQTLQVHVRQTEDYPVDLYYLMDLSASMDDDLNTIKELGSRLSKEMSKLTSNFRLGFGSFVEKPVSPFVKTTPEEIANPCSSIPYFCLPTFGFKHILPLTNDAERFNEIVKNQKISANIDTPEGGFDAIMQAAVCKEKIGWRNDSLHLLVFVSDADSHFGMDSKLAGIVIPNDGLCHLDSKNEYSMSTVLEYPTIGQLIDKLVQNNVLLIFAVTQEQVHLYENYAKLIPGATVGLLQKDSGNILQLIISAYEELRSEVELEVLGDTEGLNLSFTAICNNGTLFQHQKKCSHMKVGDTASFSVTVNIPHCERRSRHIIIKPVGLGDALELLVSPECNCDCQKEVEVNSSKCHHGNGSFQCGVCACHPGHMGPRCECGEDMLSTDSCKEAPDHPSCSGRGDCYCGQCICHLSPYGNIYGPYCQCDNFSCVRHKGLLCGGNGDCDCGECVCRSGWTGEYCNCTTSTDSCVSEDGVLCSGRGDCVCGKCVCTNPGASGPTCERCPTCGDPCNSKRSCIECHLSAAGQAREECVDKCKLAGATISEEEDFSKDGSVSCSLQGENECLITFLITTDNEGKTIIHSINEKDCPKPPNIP

-log Q	Q (IC50[Substanz] / IC50[EMD 271293])	Q-Wert = IC50 Testpeptid / IC50 EMD 271293 [1]	IC50 (IC50 of the standard peptide, printed in brackets beside its Q value, biotinylated fibronectin 2 µg/ml) [nM]	Compound
1,337	0,046	–	–	CC(C)C[C@@H]1NC(=O)[C@H](C)NC(=O)[C@@H](CC(=O)O)NC(=O)[C@H](CC(C)C)NC(=O)[C@H](CC(=O)O)NC(=O)CNC(=O)[C@H](CCCNC(=N)N)NC(=O)CNC(=O)CNC(=O)CNC(=O)CNC(=O)CNC(=O)[C@H](CCCNC(=N)N)NC1=O [EMD 272962, cyclo-(RGDLdALRGGGGG)] (cyclo(RGDL[dD]ALRGGGGG))
1,481	0,033	–	–	CC(C)C[C@@H]1NC(=O)[C@H](C)NC(=O)[C@@H](CC(=O)O)NC(=O)[C@H](CC(C)C)NC(=O)[C@H](CC(=O)O)NC(=O)CNC(=O)[C@H](CCCNC(=N)N)NC(=O)CNC(=O)CNC(=O)CNC(=O)CNC(=O)[C@H](CCCNC(=N)N)NC1=O [EMD 272961, cyclo-(RGDLdALRGGGG)] (cyclo(RGDL[dD]ALRGGGG))
-0,322	2,1	–	–	CC(C)C[C@@H]1NC(=O)[C@H](C)NC(=O)[C@@H](CC(=O)O)NC(=O)[C@H](CC(C)C)NC(=O)[C@H](CC(=O)O)NC(=O)CNC(=O)[C@H](CCCNC(=N)N)NC(=O)CNC(=O)[C@H](CCCNC(=N)N)NC1=O [EMD 271591, cyclo-(RGDLdALRG)] (cyclo(RGDL[dD]ALRG))
1,301	0,05	–	–	CC(C)C[C@@H]1NC(=O)[C@H](C)NC(=O)[C@@H](CC(=O)O)NC(=O)[C@H](CC(C)C)NC(=O)[C@H](CC(=O)O)NC(=O)CNC(=O)[C@H](CCCNC(=N)N)NC(=O)CNC(=O)CNC(=O)CNC(=O)CNC(=O)CNC(=O)CNC(=O)[C@H](CCCNC(=N)N)NC1=O [EMD 271594, cyclo-(RGDLdALRGGGGGG)] (cyclo(RGDL[dD]ALRGGGGGG))
–	–	0,03	–	CC(C)C[C@@H]1NC(=O)[C@H](C)NC(=O)[C@@H](CC(=O)O)NC(=O)[C@H](CC(C)C)NC(=O)[C@H](CC(=O)O)NC(=O)CNC(=O)[C@H](CCCNC(=N)N)NC(=O)CNC(=O)CNC(=O)CNC(=O)[C@H](CCCNC(=N)N)NC1=O [compound 271593] (cyclo(RGDL[dD]ALRGGG))
–	–	2,1	–	CC(C)C[C@@H]1NC(=O)[C@H](C)NC(=O)[C@@H](CC(=O)O)NC(=O)[C@H](CC(C)C)NC(=O)[C@H](CC(=O)O)NC(=O)CNC(=O)[C@H](CCCNC(=N)N)NC(=O)CNC(=O)[C@H](CCCNC(=N)N)NC1=O [compound 271591] (cyclo(RGDL[dD]ALRG))
1,301	0,05	–	–	CC(C)C[C@@H]1NC(=O)[C@H](C)NC(=O)[C@@H](CC(=O)O)NC(=O)[C@H](CC(C)C)NC(=O)[C@H](CC(=O)O)NC(=O)CNC(=O)[C@H](CCCNC(=N)N)NC(=O)CNC(=O)CNC(=O)[C@H](CCCNC(=N)N)NC1=O [EMD 271592, cyclo-(RGDLdALRGG)] (cyclo(RGDL[dD]ALRGG))
1,523	0,03	–	–	CC(C)C[C@@H]1NC(=O)[C@H](C)NC(=O)[C@@H](CC(=O)O)NC(=O)[C@H](CC(C)C)NC(=O)[C@H](CC(=O)O)NC(=O)CNC(=O)[C@H](CCCNC(=N)N)NC(=O)CNC(=O)CNC(=O)CNC(=O)[C@H](CCCNC(=N)N)NC1=O [EMD 271593] (cyclo(RGDL[dD]ALRGGG))
1,523	0,03	–	–	cyclo-(RGDLdALR-Abu-Abu) [EMD 272914]
1,444	0,036	–	–	cyclo-(RGDLdALR-Aha) [EMD 272959]
–	–	0,033	–	CC(C)C[C@@H]1NC(=O)[C@H](C)NC(=O)[C@@H](CC(=O)O)NC(=O)[C@H](CC(C)C)NC(=O)[C@H](CC(=O)O)NC(=O)CNC(=O)[C@H](CCCNC(=N)N)NC(=O)CNC(=O)CNC(=O)CNC(=O)CNC(=O)[C@H](CCCNC(=N)N)NC1=O [compound 272961] (cyclo(RGDL[dD]ALRGGGG))
–	–	1,00	75	CC(=O)N[C@@H](CCCNC(=N)N)C(=O)N[C@H](C(=O)N[C@@H](CC(=O)O)C(=O)N[C@@H](CC(C)C)C(=O)N[C@@H](CC(=O)O)C(=O)N[C@@H](CO)C(=O)N[C@@H](CC(C)C)C(=O)N[C@@H](CCCNC(=N)N)C(N)=O)[C@@H](C)O [compound 271293] (Ac-RTDLDSLR-NH2)
–	–	0,05	–	CC(C)C[C@@H]1NC(=O)[C@H](C)NC(=O)[C@@H](CC(=O)O)NC(=O)[C@H](CC(C)C)NC(=O)[C@H](CC(=O)O)NC(=O)CNC(=O)[C@H](CCCNC(=N)N)NC(=O)CNC(=O)CNC(=O)[C@H](CCCNC(=N)N)NC1=O [compound 271592] (cyclo(RGDL[dD]ALRGG))
–	–	0,046	–	CC(C)C[C@@H]1NC(=O)[C@H](C)NC(=O)[C@@H](CC(=O)O)NC(=O)[C@H](CC(C)C)NC(=O)[C@H](CC(=O)O)NC(=O)CNC(=O)[C@H](CCCNC(=N)N)NC(=O)CNC(=O)CNC(=O)CNC(=O)CNC(=O)CNC(=O)[C@H](CCCNC(=N)N)NC1=O [compound 272962] (cyclo(RGDL[dD]ALRGGGGG))
–	–	0,05	–	CC(C)C[C@@H]1NC(=O)[C@H](C)NC(=O)[C@@H](CC(=O)O)NC(=O)[C@H](CC(C)C)NC(=O)[C@H](CC(=O)O)NC(=O)CNC(=O)[C@H](CCCNC(=N)N)NC(=O)CNC(=O)CNC(=O)CNC(=O)CNC(=O)CNC(=O)CNC(=O)[C@H](CCCNC(=N)N)NC1=O [compound 271594] (cyclo(RGDL[dD]ALRGGGGGG))
1,553	0,028	–	–	cyclo-(RGDLdALR-Abu) [EMD 273035]
1,444	0,036	–	–	cyclo-(RGDLdALR-Aha-Aha) [EMD 272958]
